Assay results from US10828317B2, “Method of treating bacterial infections” (priority 2016, dated 2020).
Values after ≈ are worked out from the molar mass of the structure shown. Values joined by “and” are separate entries in the source; they are usually repeats but may differ in a detail not shown here. Equal entries are not always repeated. Where two headings read alike, the source gives them in different places.

Legend:
K. pneumoniae EN0262 = settings: commercial antibiotics; data provided by IMBIM, BMC, Uppsala University; cited from earlier work
S. flexneri APV00907 = experiment: MIC and antibiogram; type: cell-based; settings: for Antibiogram category (resistance pattern): letter before the MIC
Text: (§1) Inhibition of Heliobacter is important in view of increasing resistance and its association to gastric cancer.

S. flexneri APV00906 = experiment: microbe, parasite or virus in culture; type: cell-based; settings: for Antibiogram category (resistance pattern): letter before the MIC
Text: as §1

S. sonnei APV00908 = experiment: MIC and antibiogram; type: cell-based
E. coli = experiment: Murine peritonitis model; type: in vivo, mice; parameters: score at sampling: scale not given here; settings: for CFU/ml PF / log CFU/ml PF / score at sampling: per mouse
S. aureus strain no 13 = experiment: MIC vs S. aureus LMG 15975, MRSA; settings: for MIC: Staphylococcus aureus; for MIC BrdUrd: 2 μg/ml of trimethoprim
P. aeruginosa EN0459 = experiment: MIC; type: cell-based, Pseudomonas aeruginosa; settings: Pseudomonas aeruginosa, read-out: MIC
P. aeruginosa EN0422 = experiment: MIC; type: cell-based, Pseudomonas aeruginosa; settings: Pseudomonas aeruginosa, read-out: MIC
E. coli strain no 2 = experiment: MIC vs E. coli LMG 15862, penicillin resistant; settings: Escherichia coli, Uridine 0 μg/ml
A. baumannii EN007 = experiment: MIC, WT (EN007 = EN0007); type: cell-based, Acinetobacter baumannii
[1] = tested on: A. pittii or A. nosocomialis EN0180; experiment: MIC; type: cell-based, Acinetobacter pittii or nosocomialis; settings: read-out: MIC
P. mirabilis ST19 EN0445 = experiment: MIC; type: cell-based, Proteus mirabilis; settings: Proteus mirabilis, read-out: MIC
P. aeruginosa EN014 = experiment: MIC, WT; type: cell-based, Pseudomonas aeruginosa; settings: Pseudomonas aeruginosa, read-out: MIC
M. luteus EN0455 = experiment: MIC; type: cell-based, Micrococcus luteus; settings: Micrococcus luteus, EN0455, Combination 2 AZT+trimethoprim+uridine+thymidine, Table 16; read-out: MIC
S. marescens EN0454 = experiment: MIC; type: cell-based, Serratia marescens; settings: Serratia, EN0454, Combination 2 AZT+trimethoprim+uridine+thymidine, Table 16; read-out: MIC
S. aureus EN008 = experiment: MIC, Gram-positive control; type: cell-based, Staphylococcus aureus; settings: Staphylococcus aureus, EN008, Combination 2 AZT+trimethoprim+uridine+thymidine, Table 16; read-out: MIC
P. aeruginosa EN004 = experiment: MIC, WT (EN004 = EN0004); type: cell-based, Pseudomonas aeruginosa
P. mirabilis EN0457 = experiment: MIC; type: cell-based, Proteus mirabilis; settings: Proteus mirabilis, EN0457, Combination 2 AZT+trimethoprim+uridine+thymidine, Table 16; read-out: MIC
Citrobacter sp. EN0465 = experiment: MIC; type: cell-based; settings: Citrobacter, read-out: MIC
P. aeruginosa EN0460 = experiment: MIC; type: cell-based, Pseudomonas aeruginosa; settings: Pseudomonas aeruginosa, read-out: MIC
E. coli EN002 = experiment: MIC, DtoIC; type: cell-based, Escherichia coli; settings: Escherichia coli, read-out: MIC
A. baumannii EN016 = experiment: MIC, WT; type: cell-based, Acinetobacter baumannii; settings: Acinetobacter baumannii, read-out: MIC
[2] = combination AZT+trimethoprim+uridine, Table 17B

Molecule: NCC[C@H](O)C(=O)N[C@@H]1C[C@H](N)[C@@H](O[C@H]2O[C@H](CN)[C@@H](O)[C@H](O)[C@H]2O)[C@H](O)[C@H]1O[C@H]1O[C@H](CO)[C@@H](O)[C@H](N)[C@H]1O [AMK, amikacin]
- MIC (K. pneumoniae EN0262): 8 µg/mL (≈ 13.7 µM)
- Antibiogram category (resistance pattern) (S. flexneri APV00907): R*
- Antibiogram category (resistance pattern) (S. flexneri APV00906): R*
- Antibiogram category (resistance pattern) (S. sonnei APV00908; letter before the MIC): R*

Molecule: O=C(O)c1cn(C2CC2)c2cc(N3CCNCC3)c(F)cc2c1=O [Ciprofloxacin, ciprofloxacin]
- MIC (K. pneumoniae EN0262): >2 µg/mL
- CFU/ml PF (E. coli; Ciprofloxacin 14 mg/kg): 1.75E+03 CFU/ml and 2.50E+02 CFU/ml and 1.00E+03 CFU/ml (2×)
- log CFU/ml PF (E. coli; Ciprofloxacin 14 mg/kg): 3.24 log CFU/ml and 2.40 log CFU/ml and 3.00 log CFU/ml (2×)
- score at sampling (E. coli; Ciprofloxacin 14 mg/kg): 0

Molecule: CO/N=C(\C(=O)N[C@@H]1C(=O)N2C(C(=O)O)=C(COC(C)=O)CS[C@H]12)c1csc(N)n1 [CTX, cefotaxime]
- MIC (K. pneumoniae EN0262): >32 µg/mL

Molecule: colistin [CST]
- MIC (K. pneumoniae EN0262): 1 µg/mL

Molecule: amoxicillin-clavulanic acid [AMC]
- MIC (K. pneumoniae EN0262): >64 µg/mL
- Antibiogram MIC (S. flexneri APV00907): 16 µg/mL
- Antibiogram category (resistance pattern) (S. flexneri APV00907): |
- Antibiogram MIC (S. flexneri APV00906): 4 µg/mL
- Antibiogram MIC (S. sonnei APV00908): ≤ 2 µg/mL

Molecule: C[C@@H](O)[C@H]1C(=O)N2C(C(=O)O)=C(S[C@@H]3CN[C@H](C(=O)N(C)C)C3)[C@H](C)[C@H]12 [MEM, meropenem]
- MIC (K. pneumoniae EN0262): >8 µg/mL

Molecule: CO/N=C(\C(=O)N[C@@H]1C(=O)N2C(C(=O)[O-])=C(C[N+]3(C)CCCC3)CS[C@H]12)c1csc(N)n1 [FEP, cefepime]
- MIC (K. pneumoniae EN0262): >16 µg/mL

Molecule: CN(C)c1cc(NC(=O)CNC(C)(C)C)c(O)c2c1C[C@H]1C[C@H]3[C@H](N(C)C)C(O)=C(C(N)=O)C(=O)[C@@]3(O)C(O)=C1C2=O [TGC, tigecycline]
- MIC (K. pneumoniae EN0262): 2 µg/mL (≈ 3.41 µM)

Molecule: trimethoprim-sulfamethoxazole [SXT]
- MIC (K. pneumoniae EN0262): 4 µg/mL
- Antibiogram MIC (S. flexneri APV00907): ≥ 320 µg/mL
- Antibiogram MIC (S. flexneri APV00906): ≥ 320 µg/mL
- Antibiogram MIC (S. sonnei APV00908): ≥ 160 µg/mL

Molecule: COc1cc(Cc2cnc(N)nc2N)c2c(c1OC)OC(C1CC1)C=C2 (stereo not drawn) [Iclaprim, iclaprim]
- MIC (S. aureus strain no 13; NO13, read-out: MIC Iclaprim, Uridine 0 μg/ml): > 16 µg/mL
- MIC (S. aureus strain no 13; NO13, read-out: MIC Iclaprim, Uridine 100 μg/ml): > 16 µg/mL

Molecule: C[C@H]1[C@H](NC(=O)/C(=N\OC(C)(C)C(=O)O)c2csc(N)n2)C(=O)N1S(=O)(=O)O [ATM, aztreonam]
- MIC (K. pneumoniae EN0262): >16 µg/mL

Molecule: O=c1[nH]c(=O)n([C@H]2C[C@H](O)[C@@H](CO)O2)cc1Br [BrdUrd]
- MIC BrdUrd (S. aureus strain no 13; uridine 10 μg/ml): ≤2 µg/mL
- MIC BrdUrd (S. aureus strain no 13; uridine 100 μg/ml): ≤2 µg/mL

Molecule: CC(C)(O/N=C(\C(=O)N[C@@H]1C(=O)N2C(C(=O)[O-])=C(C[n+]3ccccc3)CS[C@H]12)c1csc(N)n1)C(=O)O [CAZ, ceftazidime]
- MIC (K. pneumoniae EN0262): >32 µg/mL
- Antibiogram category (resistance pattern) (S. flexneri APV00906): |

Molecule: Cc1cn([C@H]2C[C@H](N=[N+]=[N-])[C@@H](CO)O2)c(=O)[nH]c1=O [AZT, 3′-azido-3′-deoxythymidine]
- MIC (P. aeruginosa EN0459; EN0459, Combination 1 AZT+trimethoprim+uridine, Table 16): > 4 µg/mL
- MIC (P. aeruginosa EN0459; EN0459, Combination 2 AZT+trimethoprim+uridine+thymidine, Table 16): > 4 µg/mL
- MIC (P. aeruginosa EN0459; EN0459, combination AZT+trimethoprim+uridine, Table 6): > 4 µg/mL
- MIC (S. aureus strain no 13; NO13, read-out: MIC AZT, Iclaprim 0, Uridine 0 μg/ml): > 32 µg/mL
- MIC (S. aureus strain no 13; NO13, read-out: MIC AZT, Iclaprim 0, Uridine 100 μg/ml): > 32 µg/mL
- MIC (S. aureus strain no 13; NO13, read-out: MIC AZT, Iclaprim 0, Uridine 300 μg/ml): > 32 µg/mL
- MIC (S. aureus strain no 13; NO13, read-out: MIC AZT, Iclaprim 0, Uridine 500 μg/ml): > 32 µg/mL
- MIC (S. aureus strain no 13; NO13, read-out: MIC AZT, Iclaprim 0.03, Uridine 300 μg/ml): ≤ 0.008 µg/mL
- MIC (S. aureus strain no 13; NO13, read-out: MIC AZT, Iclaprim 0.03, Uridine 500 μg/ml): ≤ 0.008 µg/mL
- MIC (P. aeruginosa EN0422; EN0422, Combination 1 AZT+trimethoprim+uridine, Table 16): > 4 µg/mL
- MIC (P. aeruginosa EN0422; EN0422, Combination 2 AZT+trimethoprim+uridine+thymidine, Table 16): > 4 µg/mL
- MIC (P. aeruginosa EN0422; EN0422, combination AZT+trimethoprim+uridine, Table 6): > 4 µg/mL
- MIC (E. coli strain no 2; NO2, read-out: MIC AZT, Iclaprim 0.1): > 8 µg/mL
- MIC (E. coli strain no 2; NO2, read-out: MIC AZT, Iclaprim 0.2): > 8 µg/mL
- MIC (A. baumannii EN007; Acinetobacter baumannii, EN007, Combination 1 AZT+trimethoprim+uridine, Table 16, read-out: MIC): > 4 µg/mL
- MIC (A. baumannii EN007; Acinetobacter baumannii, EN007, Combination 2 AZT+trimethoprim+uridine+thymidine, Table 16, read-out: MIC): > 4 µg/mL
- MIC (A. baumannii EN007; Acinetobacter baumannii, EN007, combination AZT+trimethoprim+uridine, Table 6, read-out: MIC): > 4 µg/mL
- MIC (A. baumannii EN007; [2]): >4 µg/mL
- MIC ([1]; Combination 1 AZT+trimethoprim+uridine, Table 16): > 4 µg/mL
- MIC ([1]; Combination 2 AZT+trimethoprim+uridine+thymidine, Table 16): > 4 µg/mL
- MIC ([1]; combination AZT+trimethoprim+uridine, Table 6): > 4 µg/mL
- MIC (P. mirabilis ST19 EN0445; ST19EN0445, Combination 2 AZT+trimethoprim+uridine+thymidine, Table 16): > 4 µg/mL
- MIC (P. mirabilis ST19 EN0445; ST19EN0445, combination AZT+trimethoprim+uridine, Table 6): > 4 µg/mL
- MIC (P. aeruginosa EN014; EN014, Combination 1 AZT+trimethoprim+uridine, Table 16): > 4 µg/mL
- MIC (P. aeruginosa EN014; EN014, Combination 2 AZT+trimethoprim+uridine+thymidine, Table 16): > 4 µg/mL
- MIC (P. aeruginosa EN014; EN014, combination AZT+trimethoprim+uridine, Table 6): > 4 µg/mL
- MIC (M. luteus EN0455): > 4 µg/mL
- MIC (S. marescens EN0454): > 4 µg/mL
- MIC (S. aureus EN008): > 4 µg/mL
- MIC (P. aeruginosa EN004; Pseudomonas aeruginosa, EN004, Combination 1 AZT+trimethoprim+uridine, Table 16, read-out: MIC): > 4 µg/mL
- MIC (P. aeruginosa EN004; Pseudomonas aeruginosa, EN004, Combination 2 AZT+trimethoprim+uridine+thymidine, Table 16, read-out: MIC): > 4 µg/mL
- MIC (P. aeruginosa EN004; Pseudomonas aeruginosa, EN004, combination AZT+trimethoprim+uridine, Table 6, read-out: MIC): > 4 µg/mL
- MIC (P. aeruginosa EN004; [2]): >4 µg/mL
- CFU/ml PF (E. coli; AZT 30 mg/kg): 1.65E+04 CFU/ml and 4.25E+05 CFU/ml and 1.10E+07 CFU/ml and 6.75E+05 CFU/ml
- log CFU/ml PF (E. coli; AZT 30 mg/kg): 4.22 log CFU/ml and 5.63 log CFU/ml and 7.04 log CFU/ml and 5.83 log CFU/ml
- score at sampling (E. coli; AZT 30 mg/kg): 1
- inhibition in mice infected with E. coli (in words) (E. coli; murine peritonitis model): slight inhibition
- MIC (P. mirabilis EN0457): > 4 µg/mL
- MIC (Citrobacter sp. EN0465; SP.EN0465, Combination 1 AZT+trimethoprim+uridine, Table 16): > 4 µg/mL
- MIC (Citrobacter sp. EN0465; SP.EN0465, Combination 2 AZT+trimethoprim+uridine+thymidine, Table 16): > 4 µg/mL
- MIC (Citrobacter sp. EN0465; SP.EN0465, combination AZT+trimethoprim+uridine, Table 6): > 4 µg/mL
- MIC (P. aeruginosa EN0460; EN0460, Combination 1 AZT+trimethoprim+uridine, Table 16): > 4 µg/mL
- MIC (P. aeruginosa EN0460; EN0460, Combination 2 AZT+trimethoprim+uridine+thymidine, Table 16): > 4 µg/mL
- MIC (P. aeruginosa EN0460; EN0460, combination AZT+trimethoprim+uridine, Table 6): > 4 µg/mL
- MIC (E. coli EN002; EN002, Combination 1 AZT+trimethoprim+uridine, Table 16): 0.016 µg/mL
- MIC (E. coli EN002; EN002, combination AZT+trimethoprim+uridine, Table 6): 0.016 µg/mL
- MIC (A. baumannii EN016; EN016, Combination 1 AZT+trimethoprim+uridine, Table 16): > 4 µg/mL
- MIC (A. baumannii EN016; EN016, Combination 2 AZT+trimethoprim+uridine+thymidine, Table 16): > 4 µg/mL
- MIC (A. baumannii EN016; EN016, combination AZT+trimethoprim+uridine, Table 6): > 4 µg/mL
